Experiment: Release profile of fluorescent molecules from PEG-PLGA double-emulsion hairy microparticles
Format: physicochemical
Settings: 0.1 M PBS buffer pH 7.4, 37° C., fluorescence in supernatant
Excerpt: FIGS. 2A-2B. Simulated drug releasing profile from PEG-PLGA double emulsions-based hairy microparticles using two different fluorescent molecules. (FIG. 2A) Loaded Alexa Fluor® 647 (1025.2 g/mol) and (FIG. 2B) GFP (27 kDa) were released depending on the time and detected in supernatant.
To test drug encapsulating and releasing properties, we use two different sizes of fluorescent molecules (Alexa Fluor® 647, 1025.2 g/mol and GFP, 27 kDa). We load these molecules into most inner phase and generate double emulsions through two-step sequential emulsification. After fully drying of DCM, hairy microparticles are collected and washed 3 times by centrifugation at 3000 rcf for 1 min with deionized water. To determine the release profile, we place a sample in 0.1 M PBS buffer (pH=7.4, 5 ml total) at 37° C. and monitor the release of the fluorescent molecules. The fluorescent intensity in supernatant are measured using a BioTek plate reader. FIGS. 2A-2B show the release profile of both Alexa Fluor 647 and GFP. Based on the fluorescent intensity of end point, about 22-26% of Alexa Fluor 647 and 19-35% of GFP are released (compared to the amount injected into the emulsions) from microcapsules.

released from microcapsules, compared to the amount injected into the emulsions, based on fluorescent intensity of end point: 22-26%
Substance: Alexa Fluor 647

From patent publication US20250332113A1, “ADHESIVE PARTICLES FOR ACTIVE DELIVERY” (THE TRUSTEES OF THE UNIVERSITY OF PENNSYLVANIA, priority 2022, published 2025)
